From patent publication US8288139B2, “Sulfotransferase inhibitors” (Seikagaku Corporation, priority 2002, dated 2012)

Target: T1, human-derived GalNAc4S6ST (Homo sapiens, UniProt Q7LFX5)
T1 construct: made in house
T1 sequence (Q7LFX5 1-561): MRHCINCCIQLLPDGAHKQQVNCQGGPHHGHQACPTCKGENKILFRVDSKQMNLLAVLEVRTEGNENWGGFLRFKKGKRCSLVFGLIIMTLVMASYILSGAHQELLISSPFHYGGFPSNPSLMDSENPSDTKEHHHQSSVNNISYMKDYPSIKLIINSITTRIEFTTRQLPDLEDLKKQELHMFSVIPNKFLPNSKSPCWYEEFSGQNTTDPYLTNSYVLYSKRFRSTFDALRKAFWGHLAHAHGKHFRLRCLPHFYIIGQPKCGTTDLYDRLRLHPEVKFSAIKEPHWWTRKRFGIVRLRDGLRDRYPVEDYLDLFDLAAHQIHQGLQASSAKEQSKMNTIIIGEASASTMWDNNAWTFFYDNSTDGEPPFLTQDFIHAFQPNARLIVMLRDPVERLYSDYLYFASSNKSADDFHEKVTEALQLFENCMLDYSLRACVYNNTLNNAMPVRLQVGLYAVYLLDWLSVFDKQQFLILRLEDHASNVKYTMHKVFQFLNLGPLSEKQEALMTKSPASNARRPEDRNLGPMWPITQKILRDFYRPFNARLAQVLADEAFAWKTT
Experiment: Inhibition of GalNAc4S6ST enzyme activity ([35S]PAPS sulfate transfer to chondroitin sulfate A)
Format: biochemical
Details: for inhibitory activity upon GalNAc4S6ST (relative value of the enzyme reaction, system without substance = 100%): substance added at 50 nmol, 125 nmol or 250 nmol to 50 μl reaction, 37° C., 20 minutes, values only in FIG. 1-3; for strength of inhibitory activity upon GalNAc4S6ST, α type and β type of the same formula compared: Substance 1 vs 2, 3 vs 4, 5 vs 6, 50, 125 or 250 nmol in 50 μl reaction
Procedure: The enzyme activity was measured by modifying the method described in J. Biol. Chem., 276, 43894-43900 (2001). As the standard reaction solution, 2.5 μmol of imidazole-HCl (pH 6.8), 0.5 μmol of CaCl2, 1 μmol of reduced type glutathione, 25 nmol in galactosamine equivalent of chondroitin sulfate A (derived from whale cartilage, manufactured by Seikagaku Corporation), 50 pmol of [^35S]PAPS (active sulfate: about 5.0×10^5 cpm: prepared according to Anal Biochem., 148, 303-310 (1985)), and human-derived GalNAc4S6ST prepared according to the method described in J. Biol. Chem., 276, 43894-43900 (2001) were added to 50 μl. The reaction was started by adding each of Substance 1 of the present invention, Substance 2 of the present invention, Substance 3 of the present invention, Substance 4 of the present invention, Substance 5 of the present invention and Substance 6 of the present invention to this reaction system to give a final concentration of 50 nmol, 125 nmol or 250 nmol.
The reaction was carried out by incubating the reaction solution at 37° C. for 20 minutes, and the reaction was terminated by heating the reaction tubes in boiling water for 1 minute. After termination of the reaction, 3 volumes of ethanol containing 1.3% potassium acetate was added thereto to thereby precipitate the ^35S-labeled glycosaminoglycan, followed by gel chromatography using a high performance desalting column according to the method described in J. Biol. Chem., 268, 21968-21974 (1993), and then the radioactivity was measured by using a scintillation counter. A reaction system to which the enzyme was not added was used as the negative control.
By using the enzyme activity of a system to which the substance of the present invention was not added as the positive control and regarding it as 100%, relative values of the enzyme reaction in a system to which the substance of the present invention was added were calculated (Substance 1 of the present invention and Substance 2 of the present invention: FIG. 1, Substance 3 of the present invention and Substance 4 of the present invention: FIG. 2, Substance 5 of the present invention and Substance 6 of the present invention: FIG. 3).

With CC(=O)NC1[C@@H](Oc2ccccc2)OC(COS(=O)(=O)O)[C@H](O)[C@@H]1O (stereo partly shown) [Substance 1] the “inhibitory activity upon GalNAc4S6ST (relative value of the enzyme reaction, system without substance = 100%)” value was “inhibitory activity was observed”.

CC(=O)NC1[C@H](Oc2ccccc2)OC(COS(=O)(=O)O)[C@H](O)[C@@H]1O (stereo partly shown) [Substance 2] was tested, and the “strength of inhibitory activity upon GalNAc4S6ST, α type and β type of the same formula compared” value was “particularly strong” and the “inhibitory activity upon GalNAc4S6ST (relative value of the enzyme reaction, system without substance = 100%)” value was “inhibitory activity was observed”.

For CC(=O)NC1[C@H](Oc2ccccc2)OC(CO)[C@H](OS(=O)(=O)O)[C@@H]1O (stereo partly shown) [Substance 6], the “strength of inhibitory activity upon GalNAc4S6ST, α type and β type of the same formula compared” value was “stronger inhibitory activity”.
